Tested on: Runx2
Assay: Runx2 activity, 6xOSE2-Luc luciferase reporter in transfected C2C12 cells
Assay type: cell-based, Mouse
Settings: 24 hrs; for fold induction at 2.5 µM / fold induction at 5 µM / fold induction at 10 µM / fold induction at 20 µM: Mus musculus, read-out: luciferase activity relative to control set as 1
Experimental: Mouse premyoblast cell (C2C12 cell) was transfected using receptor vector 6xOSE2-Luc in order to investigate the activity of the amide compound of the present invention on Runx2.
Specifically, the receptor vector 6xOSE2-Luc was prepared by inserting an artificial promoter linked by six tandem copies of the OSE2 (osteoblast specific element-2) into vector pGL3 (Promega; Madison, Wis., U.S.A.), and then, cloned into the C2C12 cell to be transfected (Kim et al., Journal of Cellular Biochemistry, 91: 1239-1247, 2004). The OSE2 is the binding site of Runx2 in the promoter of osteocalcin which is a bone marker.
C2C12 cells (5,000 cells/well) were plated onto 96-well plates using 10% FBS (fetal bovine serum; Hyclone)-containing DMEM (Dulbecco's Modified Eagle's Medium), the medium was replaced with 5% FBS-containing DMEM after 24 hrs, and treated with each of the amide compounds obtained in Examples 1 to 94 at various concentrations of 2.5 μM, 5.0 μM, 10 μM, and 20 μM. As a control, dimethyl sulfoxide (DMSO) vehicle was applied to the cell in an amount same as that of the amide compound. After 24 hrs, the luciferase activity in the cell lysate was measured by using Dual-Luciferase Reporter Assay System (Promega). The luciferase activity of the amide compound of the present invention was calculated as a value relative to that observed for the control which was set as 1.

COc1cc2c(c(-c3cc(F)cc(F)c3)c1OC)CN(CCCCCC(=O)Nc1ccccc1N)C2=O [Example 34, N-(2-aminophenyl)-6-(4-(3,5-difluorophenyl)-5,6-dimethoxy-1-oxoisoindolin-2-yl)hexanamide]
fold induction at 2.5 µM (2.5 μM): 3.7
fold induction at 5 µM (5.0 μM): 7.4
fold induction at 10 µM (10 μM): 18
fold induction at 20 µM (20 μM): 23

Nc1ccccc1NC(=O)c1ccc(CN2Cc3c(cccc3-c3ccccc3)C2=O)cc1 [Example 11, N-(2-aminophenyl)-4-((1-oxo-4-phenylisoindolin-2-yl)methyl)benzamide]
fold induction at 2.5 µM (2.5 μM): 8.3
fold induction at 5 µM (5.0 μM): 12.3
fold induction at 10 µM (10 μM): 15.6
fold induction at 20 µM (20 μM): 16.8

Cc1cc(C)cc(-c2ccc(C(=O)NCCCCCC(=O)Nc3ccccc3N)cc2C)c1 [Example 91, N-(5-(2-aminophenylcarbamoyl)pentyl)-3-methyl-4-(3,5-dimethylphenyl)-benzamide]
fold induction at 2.5 µM (2.5 μM): 1.1
fold induction at 5 µM (5.0 μM): 1.5
fold induction at 10 µM (10 μM): 2.9
fold induction at 20 µM (20 μM): 3.9

Cc1c(C(=O)NCCCCCC(=O)Nc2ccccc2N)cccc1-c1ccccc1 [Example 81, N-(5-(2-aminophenylcarbamoyl)pentyl)-2-methyl-3-phenyl-benzamide]
fold induction at 2.5 µM (2.5 μM): 1.6
fold induction at 5 µM (5.0 μM): 3.4
fold induction at 10 µM (10 μM): 7.5
fold induction at 20 µM (20 μM): 10.7

Cc1cc(C(=O)NCCCCCC(=O)Nc2ccccc2N)ccc1-c1ccncc1 [Example 89, N-(5-(2-aminophenylcarbamoyl)pentyl)-3-methyl-4-(4-pyridinyl)-benzamide]
fold induction at 2.5 µM (2.5 μM): 9.6
fold induction at 5 µM (5.0 μM): 17.9
fold induction at 10 µM (10 μM): 23.7
fold induction at 20 µM (20 μM): 25.3

COc1ccc(-c2cccc3c2CN(Cc2ccc(C(=O)Nc4ccccc4N)cc2)C3=O)cc1 [Example 15, N-(2-aminophenyl)-4-((4-(4-methoxyphenyl)-1-oxoisoindolin-2-yl)methyl)benzamide]
fold induction at 2.5 µM (2.5 μM): 7.4
fold induction at 5 µM (5.0 μM): 10.4
fold induction at 10 µM (10 μM): 12
fold induction at 20 µM (20 μM): 14

O=C(CCCCCN1Cc2cc(-c3cccnc3)ccc2C1=O)NO [Example 54, N-hydroxy-6-(1-oxo-5-(pyridin-3-yl)isoindolin-2-yl)hexanamide]
fold induction at 2.5 µM (2.5 μM): 1.5
fold induction at 5 µM (5.0 μM): 2.9
fold induction at 10 µM (10 μM): 8.9
fold induction at 20 µM (20 μM): 19.8

COc1cc(C(=O)NCc2ccc(C(=O)Nc3ccccc3N)cc2)c(C)c(-c2cc(F)cc(F)c2)c1OC [Example 79, N-(2-aminophenyl)-4-((2-methyl-3-(3,5-difluorophenyl)-4,5-dimethoxy-benzamido)methyl)benzamide]
fold induction at 2.5 µM (2.5 μM): 13.5
fold induction at 5 µM (5.0 μM): 24.4
fold induction at 10 µM (10 μM): 31.3
fold induction at 20 µM (20 μM): 31.7

Nc1ccccc1NC(=O)c1ccc(CN2Cc3cc(-c4cc(F)cc(F)c4)ccc3C2=O)cc1 [Example 60, N-(2-aminophenyl)-4-((5-(3,5-difluorophenyl)-1-oxoisoindolin-2-yl)methyl)benzamide]
fold induction at 2.5 µM (2.5 μM): 5.4
fold induction at 5 µM (5.0 μM): 5.9
fold induction at 10 µM (10 μM): 7
fold induction at 20 µM (20 μM): 8.6

COc1cc(C(=O)NCc2ccc(C(=O)Nc3ccccc3N)cc2)c(C)c(-c2cccc(N)c2)c1OC [Example 77, N-(2-aminophenyl)-4-((3-(3-aminophenyl)-4,5-dimethoxy-2-methyl-benzamido)methyl)benzamide]
fold induction at 2.5 µM (2.5 μM): 4.9
fold induction at 5 µM (5.0 μM): 11
fold induction at 10 µM (10 μM): 24.5
fold induction at 20 µM (20 μM): 33.5

COc1cc2c(c(Br)c1OC)CN(Cc1ccc(C(=O)Nc3ccccc3N)cc1)C2=O [Example 1, N-(2-aminophenyl)-4-((4-bromo-5,6-dimethoxy-1-oxoisoindolin-2-yl)methyl)benzamide]
fold induction at 2.5 µM (2.5 μM): 21.4
fold induction at 5 µM (5.0 μM): 26.2
fold induction at 10 µM (10 μM): 19.9
fold induction at 20 µM (20 μM): 15.8

Nc1ccccc1NC(=O)c1ccc(CN2Cc3c(cccc3-c3cncnc3)C2=O)cc1 [Example 10, N-(2-aminophenyl)-4-((1-oxo-4-(pyrimidin-5-yl)isoindolin-2-yl)methyl)benzamide]
fold induction at 2.5 µM (2.5 μM): 7.9
fold induction at 5 µM (5.0 μM): 11.6
fold induction at 10 µM (10 μM): 14.4
fold induction at 20 µM (20 μM): 16.7

Cc1cc(C)cc(-c2ccc3c(c2)CN(CCCCCC(=O)NO)C3=O)c1 [Example 52, N-hydroxy-6-(5-(3,5-dimethylphenyl)-1-oxoisoindolin-2-yl)hexanamide]
fold induction at 2.5 µM (2.5 μM): 2.4
fold induction at 5 µM (5.0 μM): 4.7
fold induction at 10 µM (10 μM): 12.6
fold induction at 20 µM (20 μM): 20.4

COc1cc2c(c(-c3ccccc3)c1OC)CN(CCCCCC(=O)Nc1ccccc1N)C2=O [Example 31, N-(2-aminophenyl)-6-(5,6-dimethoxy-1-oxo-4-phenylisoindolin-2-yl)hexanamide]
fold induction at 2.5 µM (2.5 μM): 12.2
fold induction at 5 µM (5.0 μM): 21.2
fold induction at 10 µM (10 μM): 26.2
fold induction at 20 µM (20 μM): 29.3

Cc1cc(C(=O)NCCCCCC(=O)Nc2ccccc2N)ccc1-c1cncnc1 [Example 90, N-(5-(2-aminophenylcarbamoyl)pentyl)-3-methyl-4-(5-pyrimidinyl)-benzamide]
fold induction at 2.5 µM (2.5 μM): 1.7
fold induction at 5 µM (5.0 μM): 3.7
fold induction at 10 µM (10 μM): 9.5
fold induction at 20 µM (20 μM): 22.1

COc1ccc(-c2cccc(C(=O)NCCCCCC(=O)NO)c2C)c(OC)c1 [Example 93, N-(5-(hydroxycarbamoyl)pentyl)-2-methyl-3-(2,4-dimethoxyphenyl)-benzamide]
fold induction at 2.5 µM (2.5 μM): 1.3
fold induction at 5 µM (5.0 μM): 1.9
fold induction at 10 µM (10 μM): 4.8
fold induction at 20 µM (20 μM): 11.2

COc1cc(C(=O)NCc2ccc(C(=O)Nc3ccccc3N)cc2)c(C)c(Br)c1OC [Example 73, N-(2-aminophenyl)-4-((3-bromo-4,5-dimethoxy-2-methylbenzamido)methyl)benzamide]
fold induction at 2.5 µM (2.5 μM): 24.2
fold induction at 5 µM (5.0 μM): 32.3
fold induction at 10 µM (10 μM): 30.8
fold induction at 20 µM (20 μM): 25.9

COc1ccc(-c2cccc3c2CN(Cc2ccc(C(=O)Nc4ccccc4N)cc2)C3=O)cc1OC [Example 16, N-(2-aminophenyl)-4-((4-(3,4-dimethoxyphenyl)-1-oxoisoindolin-2-yl)methyl)benzamide]
fold induction at 2.5 µM (2.5 μM): 12.2
fold induction at 5 µM (5.0 μM): 12.3
fold induction at 10 µM (10 μM): 8.5
fold induction at 20 µM (20 μM): 9.2

O=C(CCCCCN1Cc2cc(-c3ccc(C(F)(F)F)cc3)ccc2C1=O)NO [Example 55, 6-(5-(4-(trifluoromethyl)phenyl)-1-oxoisoindolin-2-yl)-N-hydroxyhexanamide]
fold induction at 2.5 µM (2.5 μM): 2.7
fold induction at 5 µM (5.0 μM): 3.7
fold induction at 10 µM (10 μM): 5.5
fold induction at 20 µM (20 μM): 13.3

O=C(CCCCCN1Cc2cc(-c3cc(F)cc(F)c3)ccc2C1=O)NO [Example 53, 6-(5-(3,5-difluorophenyl)-1-oxoisoindolin-2-yl)-N-hydroxyhexanamide]
fold induction at 2.5 µM (2.5 μM): 1.7
fold induction at 5 µM (5.0 μM): 3
fold induction at 10 µM (10 μM): 5.6
fold induction at 20 µM (20 μM): 13.3

Nc1ccccc1NC(=O)c1ccc(CN2Cc3c(cccc3-c3ccc4c(c3)OCO4)C2=O)cc1 [Example 19, N-(2-aminophenyl)-4-((4-(benzo[d][1,3]dioxol-6-yl)-1-oxoisoindolin-2-yl)methyl)benzamide]
fold induction at 2.5 µM (2.5 μM): 10.8
fold induction at 5 µM (5.0 μM): 9.9
fold induction at 10 µM (10 μM): 11.7
fold induction at 20 µM (20 μM): 14

O=C(CCCCCN1Cc2c(cccc2-c2cccnc2)C1=O)NO [Example 43, N-hydroxy-6-(1-oxo-4-(pyridin-3-yl)isoindolin-2-yl)hexanamide]
fold induction at 2.5 µM (2.5 μM): 1.1
fold induction at 5 µM (5.0 μM): 1.3
fold induction at 10 µM (10 μM): 1.8
fold induction at 20 µM (20 μM): 3.2

Cc1c(C(=O)NCc2ccc(C(=O)Nc3ccccc3N)cc2)cccc1-c1cncnc1 [Example 70, N-(2-aminophenyl)-4-((2-methyl-3-(5-pyrimidinyl)benzamido)methyl)benzamide]
fold induction at 2.5 µM (2.5 μM): 8.9
fold induction at 5 µM (5.0 μM): 20.6
fold induction at 10 µM (10 μM): 30.1
fold induction at 20 µM (20 μM): 40.2

COc1ccc(-c2ccc3c(c2)CN(CCCCCC(=O)NO)C3=O)cc1OC [Example 51, N-hydroxy-6-(5-(3,4-dimethoxyphenyl)-1-oxoisoindolin-2-yl)hexanamide]
fold induction at 2.5 µM (2.5 μM): 1.2
fold induction at 5 µM (5.0 μM): 2.1
fold induction at 10 µM (10 μM): 10.4
fold induction at 20 µM (20 μM): 26.4

Cc1c(C(=O)NCc2ccc(C(=O)Nc3ccccc3N)cc2)cccc1-c1ccccc1 [Example 69, N-(2-aminophenyl)-4-((2-methyl-3-phenyl-benzamido)methyl)benzamide]
fold induction at 2.5 µM (2.5 μM): 13.5
fold induction at 5 µM (5.0 μM): 22
fold induction at 10 µM (10 μM): 29.2
fold induction at 20 µM (20 μM): 30.6

Cc1c(C(=O)NCc2ccc(C(=O)Nc3ccccc3N)cc2)cccc1-c1cccc(N)c1 [Example 72, N-(2-aminophenyl)-4-((2-methyl-3-(3-aminophenyl)benzmido)methyl)benzamide]
luciferase activity relative to control set as 1 (2.5 μM): 17.6 fold
luciferase activity relative to control set as 1 (5.0 μM): 29.8 fold
luciferase activity relative to control set as 1 (10 μM): 29.6 fold
luciferase activity relative to control set as 1 (20 μM): 31.4 fold

Reference: US8716326B2, “Isoindolinone derivatives, preparation method thereof and a pharmaceutical composition comprising same” (Korea Research Institute of Chemical Technology, priority 2009, dated 2014)
